The subject of data set [1] is B-16 melanoma cells. Briefly: Antitumorous activity: growth inhibition of B-16 melanoma cells (Test Example 1). It is filed as cell-based, mice. The note with it: Mus musculus, B16, 1 hour drug exposure at 37° C., then 48 hours incubation. The procedure:
B-16 melanoma cells were suspended in RPMI 1640 medium containing 5% fetal bovine serum in a concentration of 4×10^4 cells/ml. The resulting suspension was placed in the 12 wells (1 ml/well) of a plate-cum-wells, wherein preliminary incubation was then carried out for 24 hours. A test drug was dissolved in a mixture of dimethyl sulfoxide and a culture medium of 5% serum - RPMI 1640 (1:3 in volume ratio). Thus, drug solutions having various respective drug concentrations were prepared. 20 μl each of these drug solutions were respectively added to the wells of the plate. The resulting drug-added suspensions were subjected to incubation at 37° C. for 1 hour. Subsequently, the incubated medium were removed from the respective wells, which were then washed once with the same culture medium as mentioned above. Thereafter, the same culture medium as mentioned above was freshly placed in each of the wells of the plate, followed by incubation at 37° C. for 48 hours.
The number of cells in each well was counted according to a customary method using a Coulter counter.
The values of growth control rate in the members of each drug-treated group, which members corresponding to the respective wells of the plate were culture broths respectively treated with drug solutions having various respective drug concentrations, were calculated by comparison with the growth rate of the drug-untreated group. The inhibitory concentration of each test drug in which the growth control rate was 50% (IC50) was calculated from the above-calculated values of growth control rate.

Data set [2] in a line: Antitumorous activity (general statement). Particulars: result in words.
Data set [3] is described as follows: Antibacterial activity (general statement). Particulars: result in words.
The conditions of data set [4]: result in words; already known; cited from earlier work.
For data set [5] the following is noted: result in words; already known; cited from earlier work. This is another data set of the same source.
For data set [6], the system named is Bacillus megaterium IFO 12108. Briefly: Antibacterial activity, agar dilution method (Test Example 2). It is filed as cell-based. The note with it: Priestia megaterium, IFO12108. From the text: (§1) The minimum inhibitory concentrations (MIC) of exo-BDMC against growth of various microorganisms were examined according to an agar dilution method.
(In general: In agar dilution the substance is mixed into plates at graded concentrations.)

Data set [7] has as its system Bacillus subtilis PCI 219. Described as above. It is filed as cell-based. The note with it: PCI219.
Excerpt: as §1

Data set [8] deals with Staphylococcus aureus 209P. The description is as above. It is filed as cell-based.
Excerpt: as §1

In data set [9] the test system is Flavobacterium meningosepticum IFO 12535. The description is as above. Type of data set: cell-based. The note with it: Elizabethkingia meningoseptica, IFO12535.
Excerpt: as §1

In data set [10] the test system is Gram-positive bacteria or Gram-negative bacteria. In words: Growth inhibition of bacteria (general statement). It is filed as cell-based. The note with it: exo-BDMC or its salts; result in words.
On the set-up of data set [11]: species or system mice. The note with it: mouse, in vivo. The procedure: Exo-6-O-(N-trifluoroacetyl-β-aminoisobutyryl)-3',4'-O-benzylidenechartreusin was intravenously injected in a dose of 40 mg/kg into 160 DDY mice. 300 g of feces excreted within 24 hours after the intravenous injection were collected and ground down in a mortar. 1 liter of a mixed solvent (methanol:chloroform=1:1 in volume ratio) was added to the ground-down feces. The resulting mixture was stirred at 60° C. for 30 minutes to effect extraction, followed by separation of insolubles by filtration. The separated insolubles were admixed with 700 ml of the same mixed solvent as mentioned above to effect extraction again. The two resulting extracts were put together and concentrated under reduced pressure to obtain 9 g of crude exo-BDMC. The crude exo-BDMC was subjected to a purification operation by silica gel column chromatography (developing solvent: chloroform+methanol). The above-mentioned purification operation was repeated. An exo-BDMC-containing fraction obtained by the foregoing purification procedure was concentrated and then recrystallized from a mixed solvent (chloroform:methanol:ethyl acetate=2:1:1 in volume ratio) to obtain 50 mg of exo-BDMC. […]

For data set [12], the system named is cells of experimental tumors of mice and the like, such as P-388 leukemia, L-1210 leukemia, B-16 melanoma, M-5076 sarcoma, Colon 26, and Lewis lung carcinoma. In words: Activity against cells of experimental tumors (general statement). The note with it: exo-BDMC or its salts; result in words. It is filed as cell-based.

In brackets after ≈: the same amount, converted by molar mass. Read-outs that look alike come from different tables or passages of the source.

As usually defined, the IC50 is the concentration that inhibits the measured activity by half. Lower therefore signals higher potency. Take `CO[C@H]1[C@@H](O)[C@@H](C)O[C@H](O[C@H]2[C@H](Oc3cccc4c(O)c5c(=O)oc6ccc(C)c7c(=O)oc(c34)c5c67)O[C@H](C)[C@@H]3OC(c4ccccc4)O[C@@H]32)[C@@H]1O` (stereo partly drawn) [exo-BC, Exo-3',4'-O-benzylidenechartreusin, reference compound]: half-maximal inhibition in data set [1] (IC50) required 2.1 µg/mL (≈ 2.88 µM).
`Cc1ccc2oc(=O)c3c(O)c4cccc(O[C@@H]5O[C@H](C)[C@H](O)[C@H](O)[C@H]5O[C@H]5O[C@H](C)[C@H](O)[C@H](O)[C@H]5O)c4c4oc(=O)c1c2c34` [3"-DMC, 3"-demethylchartreusin]: in data set [2], the antitumorous activity result is “has antitumorous and antibacterial activities”. Further, the antibacterial activity entry in [3] is “has antitumorous and antibacterial activities”. This compound also gave an IC50 in [1] of 11 µg/mL (≈ 17.6 µM).
As to `CO[C@H]1[C@@H](O)[C@@H](C)O[C@H](O[C@H]2[C@H](Oc3cccc4c(O)c5c(=O)oc6ccc(C)c7c(=O)oc(c34)c5c67)O[C@H](C)[C@H](O)[C@@H]2O)[C@@H]1O` [chartreusin], the antitumorous activity entry in [4] was “has antibacterial and antitumorous activities”. The IC50 in data set [1] was 9.2 µg/mL (≈ 14.4 µM). Also, the antibacterial activity result in [5] was “has antibacterial and antitumorous activities”.
As a reminder, the MIC is the lowest concentration found to suppress growth. A low value points to greater potency. Turning to `Cc1ccc2oc(=O)c3c(O)c4cccc(O[C@@H]5O[C@H](C)[C@@H]6OC(c7ccccc7)O[C@@H]6[C@H]5O[C@H]5O[C@H](C)[C@H](O)[C@H](O)[C@H]5O)c4c4oc(=O)c1c2c34` (stereo partly drawn) [exo-BDMC, exo-3',4'-O-benzylidene-3"-demethylchartreusin], the antitumorous activity result in data set [2] is “has antitumorous and antibacterial activities”. The minimum inhibitory concentration (MIC) stood at 1.56 µg/mL (≈ 2.18 µM) in data set [6], 1.56 µg/mL (≈ 2.18 µM) in data set [7], 3.13 µg/mL (≈ 4.38 µM) in data set [8] and 1.56 µg/mL (≈ 2.18 µM) in [9]. In data set [3], the antibacterial activity result is “has antitumorous and antibacterial activities”. Also, the “capacity of inhibiting growth of bacteria” value in data set [10] is given as “strongly inhibiting growth of either Gram-positive bacteria or Gram-negative bacteria”. Also, the IC50 in data set [1] is 0.9 µg/mL (≈ 1.26 µM). Also, in data set [11], the “presence in the excreta of mice (metabolite of exo-3',4'-O-benzylidenechartreusin derivatives)” value is reported as “exists in the excreta of mice”. Moreover, the “activities against cells of experimental tumors” value in data set [12] is “exhibit activities against cells of experimental tumors”.
